From patent publication US12319655B2, “RAF kinase inhibitors and methods of use thereof” (Deciphera Pharmaceuticals, LLC, priority 2021, dated 2025)
Like-named read-outs stand apart in the source and are kept apart here.

Experiments:
Miapaca-2 cells = assay: MiaPaca-2 Cell Proliferation Assay (1); format: cell-based; conditions: Homo sapiens, MIA PaCa-2, single agent, read-out: MiaPaca2 (1) IC50
How it was run: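 Resazurin was added after compound exposure and incubated 5-6 h, then fluorescence read at 540 nm excitation and 600 nm emission to give IC50.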

[1] = target: A-Raf kinase (SEQ. ID No: 1) (Homo sapiens (Human), UniProt P10398, Y301D/Y302D); assay: Biochemical Assay for A-Raf (1); conditions: Table J
How it was run: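 A-Raf Y301D/Y302D at 5.55 nM phosphorylates 30.1 nM MEK with 1 mM ATP in pH 7.5 Tris buffer, 1% DMSO. Activity was read continuously as NADH oxidation at 340 nm in a pyruvate kinase/lactate dehydrogenase coupled system for 6 h at 30 °C. Rates from 4–5 h were converted to percent inhibition, and IC50 came from a four-parameter fit.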

H2405 cells = assay: H2405 Cell Proliferation Assay (1); format: cell-based; conditions: Homo sapiens, NCI-H2405
How it was run: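 Viability was read by resazurin reduction (ex 540 nm, em 600 nm; 5-6 h with 40 μL of 440 μM stock) after 67-72 h compound exposure at 37 °C.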

[2] = target: B-Raf kinase (SEQ. ID NO: 2) (Homo sapiens (Human), UniProt P15056); assay: Biochemical Assay for B-Raf (1); conditions: Table J
How it was run: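 Continuous PK/LDH-coupled NADH oxidation assay, A340 read for 6 h at 30° C., with 0.13 nM B-Raf, 30.1 nM MEK substrate and 1 mM ATP in Tris pH 7.5, MgCl2, DTT, detergents, 1% DMSO. Rate taken from 4–5 h window; percent inhibition vs no-compound and known-inhibitor controls; four-parameter fit gives IC50.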

[3] = assay version (1), read-out: ARAF (1) IC50
[4] = assay version (1), read-out: BRAF (1) IC50
[5] = biochemical assay (1), read-out: ARAF (1)
[6] = biochemical assay (1), read-out: BRAF (1)

Chain of A-Raf kinase (SEQ. ID No: 1) (P10398 other isoform, or with tags, fused parts or gaps Y301D (already in the parent)/Y302D (already in the parent)): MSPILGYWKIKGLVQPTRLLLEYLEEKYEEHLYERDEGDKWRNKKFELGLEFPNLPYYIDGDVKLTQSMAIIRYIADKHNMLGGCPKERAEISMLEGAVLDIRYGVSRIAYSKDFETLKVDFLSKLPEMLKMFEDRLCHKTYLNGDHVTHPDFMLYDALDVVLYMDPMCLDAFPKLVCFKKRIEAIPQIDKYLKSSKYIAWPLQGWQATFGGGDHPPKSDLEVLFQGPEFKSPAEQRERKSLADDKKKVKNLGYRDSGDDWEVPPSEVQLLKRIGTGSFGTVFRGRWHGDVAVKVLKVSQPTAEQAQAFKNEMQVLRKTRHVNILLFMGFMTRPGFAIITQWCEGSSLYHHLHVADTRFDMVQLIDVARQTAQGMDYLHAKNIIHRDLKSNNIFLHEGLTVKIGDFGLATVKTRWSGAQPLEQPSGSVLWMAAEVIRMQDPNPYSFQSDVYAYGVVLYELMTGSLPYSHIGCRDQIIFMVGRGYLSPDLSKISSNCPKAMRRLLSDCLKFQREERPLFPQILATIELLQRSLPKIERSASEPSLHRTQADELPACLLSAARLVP
Chain of B-Raf kinase (SEQ. ID NO: 2) (P15056 416-766): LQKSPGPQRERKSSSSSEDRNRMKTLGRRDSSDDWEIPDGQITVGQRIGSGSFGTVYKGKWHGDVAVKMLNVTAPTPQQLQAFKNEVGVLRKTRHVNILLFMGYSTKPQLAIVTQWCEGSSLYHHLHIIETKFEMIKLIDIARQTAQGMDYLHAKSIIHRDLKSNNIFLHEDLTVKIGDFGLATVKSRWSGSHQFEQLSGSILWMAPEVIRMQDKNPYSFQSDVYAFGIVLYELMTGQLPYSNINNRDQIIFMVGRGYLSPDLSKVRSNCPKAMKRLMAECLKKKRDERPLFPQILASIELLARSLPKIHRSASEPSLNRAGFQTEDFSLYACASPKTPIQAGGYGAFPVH

Row | IC50 (Miapaca-2 cells) [nM] | IC50 [1, 3] [nM] | IC50 (H2405 cells) [nM] | IC50 [2, 4] [nM] | IC50 [1, 5] [nM] | IC50 [2, 6] [nM] | SMILES
1 | 1000 to 10000 | 1000 to 10000 | ≤ 100 | ≤ 100 | – | – | CC(=O)Nc1cc(-c2cc(-c3cc(NC(=O)c4ccnc(C(F)(F)F)c4)ccc3C)nc(N(C)C)n2)ccn1 [Example 41, N-(3-(6-(2-acetamidopyridin-4-yl)-2-(dimethylamino)pyrimidin-4-yl)-4-methylphenyl)-2-(trifluoromethyl)isonicotinamide]
2 | 1000 to 10000 | 1000 to 10000 | 500 to 1000 | 100 to 500 | – | – | CNC(=O)c1cc(-c2cc(-c3cc(NC(=O)c4ccnc(C(F)(F)F)c4)cnc3C)ccn2)ccn1 [Example 42]
3 | 1000 to 10000 | 1000 to 10000 | 100 to 500 | ≤ 100 | – | – | CNC(=O)c1cc(-c2cc(-c3cc(NC(=O)c4ccnc(C(F)F)c4)ccc3C)ccn2)ccn1 [Example 48]
4 | 1000 to 10000 | 1000 to 10000 | ≤ 100 | ≤ 100 | – | – | CNC(=O)c1cc(-c2cc(-c3cc(NC(=O)c4ccnc(C(C)(C)C#N)c4)ccc3C)ccn2)ccn1 [Example 50]
5 | 1000 to 10000 | 1000 to 10000 | ≤ 100 | 100 to 500 | – | – | CNC(=O)c1cc(-c2cc(-c3cc(NC(=O)c4cccc(C(F)(F)F)c4)cnc3C)ccn2)ccn1 [Example 52]
6 | 1000 to 10000 | 1000 to 10000 | ≤ 100 | ≤ 100 | – | – | Cc1ccc(NC(=O)c2ccnc(C(F)(F)F)c2)cc1-c1ccnc(-c2ccnc(NC(=O)C3CC3)c2)c1 [Example 54]
7 | 1000 to 10000 | 1000 to 10000 | 100 to 500 | ≤ 100 | – | – | CCOc1ncc(-c2cc(NC(=O)c3ccnc(C(F)(F)F)c3)ccc2C)cc1-c1ccnc(NC(C)=O)c1 [Example 68]
8 | 1000 to 10000 | 1000 to 10000 | 100 to 500 | 100 to 500 | – | – | CCOc1ncc(-c2cc(NC(=O)c3ccnc(C(F)(F)F)c3)ccc2C)cc1-c1ccnc(C(=O)NC)c1 [Example 69]
9 | 1000 to 10000 | 1000 to 10000 | 100 to 500 | 500 to 1000 | – | – | CNC(=O)c1cc(-c2cc(-c3cc(C(=O)Nc4ccnc(C(C)(C)C#N)c4)ccc3C)ccn2)ccn1 [Example 74]
10 | 1000 to 10000 | 1000 to 10000 | 100 to 500 | ≤ 100 | – | – | CNC(=O)c1cc(-c2cc(-c3cc(NC(=O)c4ccnc(C(F)(F)F)c4)ccc3C)ncn2)ccn1 [Example 85]
11 | 1000 to 10000 | 1000 to 10000 | ≤ 100 | 100 to 500 | – | – | CNC(=O)c1cc(-c2cncc(-c3cc(NC(=O)c4ccnc(C(C)(C)C#N)c4)ccc3C)n2)ccn1 [Example 86]
12 | 1000 to 10000 | – | 100 to 500 | – | 1000 to 10000 | 100 to 500 | CNC(=O)c1cc(-c2cncc(-c3cc(NC(=O)c4ccnc(C(C)(C)F)c4)ccc3C)c2)ncn1 [Example 379]
13 | – | – | 500 to 1000 | – | 1000 to 10000 | ≤ 100 | COC(=O)Nc1cc(-c2cccc(-c3cc(NC(=O)c4ccnc(C(C)(C)F)c4)cnc3C)c2)ccn1 [Example 402]

The remaining lines, values behind:

Row | SMILES | IC50 (Miapaca-2 cells) [nM] | IC50 [1, 3] [nM] | IC50 (H2405 cells) [nM] | IC50 [2, 4] [nM] | IC50 [1, 5] [nM] | IC50 [2, 6] [nM]
14 | Cc1ccc(NC(=O)c2ccnc(C(C)(C)C#N)c2)cc1-c1ccnc(-c2ccnc(N)c2)c1 [Example 56] | 1000 to 10000 | 1000 to 10000 | 500 to 1000 | ≤ 100 | – | –
15 | CCOc1ncc(-c2cc(NC(=O)c3ccnc(C(F)(F)F)c3)ccc2C)cc1-c1ccnc(NC(=O)C2CC2)c1 [Example 71] | 1000 to 10000 | 1000 to 10000 | 100 to 500 | 100 to 500 | – | –
16 | Cc1ccc(NC(=O)c2ccnc(C(C)(C)C#N)c2)cc1-c1cccc(-c2cc(NC(=O)C3CC3)ncn2)c1 [Example 77] | 1000 to 10000 | 1000 to 10000 | ≤ 100 | ≤ 100 | – | –
17 | Cc1ccc(NC(=O)c2ccnc(C(F)(F)F)c2)cc1-c1cccc(-c2cc(NC(=O)C3CC3)ncn2)c1 [Example 80] | 1000 to 10000 | 1000 to 10000 | ≤ 100 | ≤ 100 | – | –
18 | Cc1ccc(NC(=O)c2ccnc(C(C)(C)C#N)c2)cc1-c1ccnc(-c2ccnc(N)c2)n1 [Example 82] | 1000 to 10000 | 1000 to 10000 | 500 to 1000 | ≤ 100 | – | –
19 | COC(=O)Nc1cc(-c2cncc(-c3cc(NC(=O)c4ccnc(C(C)(C)F)c4)c(F)cc3C)c2)ccn1 [Example 384] | 1000 to 10000 | – | 100 to 500 | – | 1000 to 10000 | ≤ 100
20 | Cc1ncc(NC(=O)c2ccnc(C(C)(C)C#N)c2)cc1-c1cccc(-c2ncnn3cccc23)c1 [Example 385] | – | – | 1000 to 10000 | – | 1000 to 10000 | 100 to 500
21 | COC(=O)Nc1cc(-c2cc(-c3cc(NC(=O)c4ccnc(C(C)(C)F)c4)c(F)cc3C)cc(C)n2)ccn1 [Example 386] | – | – | 500 to 1000 | – | 1000 to 10000 | 100 to 500
22 | Cc1ccc(NC(=O)[C@H]2CCO[C@@H](C(C)C)C2)cc1-c1cc(-c2ccnc(NC(=O)C3CC3)c2)cnn1 [Example 388] | – | – | 1000 to 10000 | – | 1000 to 10000 | ≤ 100
23 | Cc1ccc(NC(=O)[C@H]2CCO[C@H](C(C)C)C2)cc1-c1cc(-c2ccnc(NC(=O)C3CC3)c2)cnn1 [Example 389] | – | – | 1000 to 10000 | – | 1000 to 10000 | ≤ 100
24 | COC(=O)Nc1cc(-c2nccc(-c3cc(NC(=O)c4ccnc(C(C)(C)F)c4)ccc3C)n2)ccn1 [Example 391] | 1000 to 10000 | – | 500 to 1000 | – | 1000 to 10000 | ≤ 100
25 | CNC(=O)c1cc(-c2ccnc(-c3cc(NC(=O)CCC4(F)CC4)ccc3C)c2)ccn1 [Example 392] | – | – | 1000 to 10000 | – | 1000 to 10000 | 500 to 1000
26 | CNC(=O)c1cc(-c2cncc(-c3cc(NC(=O)c4ccnc(C5(C#N)CC5)c4)ccc3C)c2)ncn1 [Example 393] | 1000 to 10000 | – | 100 to 500 | – | 1000 to 10000 | ≤ 100
27 | Cc1ccc(NC(=O)c2ccnc(C(C)(C)F)c2)cc1-c1cncc(-c2cc(NC(=O)C3CC3)ncn2)c1 [Example 394] | 100 to 500 | – | ≤ 100 | – | 100 to 500 | ≤ 100
28 | Cc1ccc(NC(=O)c2ccnc(C3(C#N)CC3)c2)cc1-c1cncc(-c2cc(NC(=O)C3CC3)ncn2)c1 [Example 395] | 100 to 500 | – | ≤ 100 | – | 500 to 1000 | ≤ 100
29 | Cc1ccc(NC(=O)c2ccnc(C3CC3)c2)cc1-c1cncc(-c2cc(NC(=O)C3CC3)ncn2)c1 [Example 396] | 1000 to 10000 | – | ≤ 100 | – | 100 to 500 | ≤ 100
30 | Cc1ccc(NC(=O)c2ccnc(C(F)(F)F)c2)cc1-c1cncc(-c2cc(NC(=O)C3CC3)ncn2)c1 [Example 397] | 100 to 500 | – | ≤ 100 | – | 1000 to 10000 | ≤ 100
31 | Cc1cc(F)c(NC(=O)c2ccnc(C3CC3)c2)cc1-c1cncc(-c2cc(NC(=O)C3CC3)ncn2)c1 [Example 398] | 500 to 1000 | – | ≤ 100 | – | 1000 to 10000 | ≤ 100
32 | Cc1cc(F)c(NC(=O)c2ccnc(C(C)(C)F)c2)cc1-c1cncc(-c2ccnc(NC(=O)C3CC3)c2)c1 [Example 399] | – | – | ≤ 100 | – | 500 to 1000 | ≤ 100
33 | Cc1ccc(NC(=O)c2ccnc(C(C)(C)F)c2)cc1-c1cc(-c2ccnc3[nH]ncc23)cnn1 [Example 400] | – | – | 1000 to 10000 | – | 1000 to 10000 | ≤ 100
34 | COC(=O)Nc1cc(-c2cc(-c3cc(NC(=O)c4ccnc(C(C)(C)F)c4)ccc3C)cc(OCCO)n2)ccn1 [Example 401] | 1000 to 10000 | – | 100 to 500 | – | 1000 to 10000 | ≤ 100
35 | COC(=O)Nc1cc(-c2ccnc(-c3cc(NC(=O)c4ccnc(C(C)(C)F)c4)ccc3C)n2)ccn1 [Example 403] | – | – | 100 to 500 | – | 1000 to 10000 | ≤ 100
